Reference: US9375000B2, “Pesticidal arylpyrrolidines” (Bayer Intellectual Property GmbH, priority 2011, dated 2016)

Tests used:
Assay type in all cases: in vivo
[1] = test system: Ctenocephalides felis; test: Test against Ctenocephalides felis (CTECFE), blood feeding; conditions: for mortality at 100 ppm: Ctenocephalides felis, in Bos taurus, 48 h, read-out: activity (mortality); for activity (mortality): application rate 100 ppm in cattle blood, after 2 days
Procedure: (§1) Solvent: dimethyl sulfoxide
To produce a suitable preparation of active compound, 10 mg of active compound are dissolved in 0.5 ml solvent, and the concentrate is diluted with cattle blood to the desired concentration. Approximately 20 adult unfed (Ctenocepahlides felis) are placed in flea chambers. The blood chamber, sealed with parafilm on the bottom, are filled with cattle blood supplied with compound solution and placed on top of the flea chamber, so that the fleas are able to suck the blood. The blood chamber is heated to 37° C. whereas the flea chamber is kept at room temperature.
After 2 days mortality in % is determined. 100% means that all the fleas have been killed; 0% means that none of the fleas have been killed.

[2] = test system: Larvae of Spodoptera litura; test: Larvae of Spodoptera litura, method using artificial feeds; conditions: artificial feed, after 7 days; for pest or weed control at 20 ppm: Spodoptera litura, 168 h, read-out: insecticidal activity (pesticidal ratio)
How it was run: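 Compound formulated in dimethylformamide with polyoxyethylene alkyl phenyl ether emulsifier, water-diluted and poured onto artificial diet. Five 3rd-instar Spodoptera litura larvae per cup, held at 25° C and 50-60% humidity. Mortality after 7 days expressed as pesticidal ratio.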

[3] = test system: Lucilia cuprina 1st instar larvae; test: Test against Lucilia cuprina larvae; conditions: 48 h, read-out: activity (larval mortality)
Procedure: as §1
10 mg active compound are dissolve in 0.5 mL dimethyl sulfoxide. Serial dilutions are made to obtain the desired rates.
Approximately 20 Lucilia cuprina 1st instar larvae are transferred into a test tube containing 1 cm^3 of minced horse meat and 0.5 ml aqueous dilution of test compound. After 48 hrs percentage of larval mortality are recorded. 100% efficacy=all larvae are killed, […].

[4] = test system: Tobacco Cutworm (Spodoptera litura) Larvae; test: Tobacco cutworm (Spodoptera litura) larvae, sweet potato leaf dip test; conditions: dead larvae after 7 days
How it was run: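 Sweet potato leaves were dipped in DMF/emulsifier test solution at the set concentration and air-dried. Ten third-instar S. litura larvae were placed per dish at 25 °C, with fresh leaves added on days 2 and 4. Mortality was counted on day 7, given as % insecticidal activity averaged over two dishes.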

[5] = test system: Two-Spotted Spider Mite (Tetranychus urticae); test: Two-spotted spider mite (Tetranychus urticae) spray test on kidney bean; conditions: after 7 days; for pest or weed control at 20 ppm: Tetranychus urticae, 168 h, read-out: acaricidal activity
How it was run: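 Kidney bean plants at the two-leaf stage carried 50-100 adult mites and were sprayed one day later with compound in DMF/polyoxyethylene alkyl phenyl ether diluted in water. Ammonium salt and penetration enhancer at 1000 ppm were added if needed. Acaricidal activity (% mites killed) was scored after 7 days in a greenhouse.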

[6] = test system: Cucurbit Leaf Beetle (Aulacophora femoralis); test: Cucurbit leaf beetle (Aulacophora femoralis) cucumber leaf dip test; conditions: after 7 days
How it was run: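 Cucumber leaves dipped in compound formulated with DMF and polyoxyethylene alkyl phenyl ether, diluted in water, with ammonium salt or ammonium salt plus penetration enhancer at 1000 ppm added if necessary; dried leaves placed on sterilized soil with five second-instar larvae. Kept at 25° C; larval mortality counted after 7 days.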

[7] = test system: adult engorged female Boophilus microplus ticks; test: Test against Boophilus microplus (dip); conditions: Rhipicephalus microplus, 168 h, read-out: activity (mortality)
Procedure: as §1
(§2) To produce a suitable preparation of active compound, 10 mg of active compound are dissolved in 0.5 ml solvent, and the concentrate is diluted with water to the desired concentration. Eight to ten adult engorged female Boophilus microplus ticks are placed in perforated plastic beakers and immersed in aqueous compound solution for one minute. Ticks are transferred to a filter paper in a plastic tray. Egg deposition of fertile eggs is monitored after. After 7 days mortality in % is determined. 100% means that all the ticks have been killed; 0% means that none of the ticks have been killed.

[8] = test system: green peach aphids (Myzus persicae); test: Myzus persicae spray test (MYZUPE); conditions: active compound concentration 20 ppm; after 6 days
Procedure: Unless not mentioned otherwise, the test solutions were prepared as follows:
Solvent: 3 parts by weight Dimethylformamide
Emulsifier: 1 part by weight Polyoxyethylene alkyl phenyl ether
In order to make an appropriate formulation of an active compound, 1 part by weight of the active compound is mixed with the above mentioned amount of solvent and emulsifier and the mixture is diluted with water to a prescribed concentration. Ammonium salt or ammonium salt and penetration enhancer in a dosage of 1000 ppm are added to the desired concentration if necessary.
1 day before treatment, green peach aphids (Myzus persicae) are inoculated onto the testing plants, about 50 heads per leaf, 100 for 1 pot. A paper label is placed on each pot. Solutions are sprayed directly onto both insects and plants. After drying, the pots are placed in the greenhouse at 20° C.-25° C. After 6 days mortality in % is determined. An insecticidal activity of 100% means that all aphids were killed, whereas an insecticidal activity of 0% means that no aphid was killed.

[9] = test system: Thrips palmi; test: Thrips palmi spray test (THRIPL); conditions: active compound concentration 20 ppm; after 6 days
How it was run: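 Cucumber seedlings sprayed with compound formulated in DMF/polyoxyethylene alkyl phenyl ether and diluted in water, ammonium salt ± penetration enhancer at 1000 ppm added if needed. About 100 T. palmi eggs attached, plants held caged at 100% humidity, 23 °C. Percent activity scored from feeding damage after 6 days, 100 = no damage, 0 = as untreated.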

[10] = test system: Nymphs of the tick Amblyomma hebraeum; test: Amblyomma hebraeum test (AMBYHE), nymph immersion; conditions: application rate 100 ppm; immersion one minute; 42 days
Procedure: Solvent: Dimethyl sulfoxide
as §2, with “Nymphs of the tick Amblyomma hebraeum” for “Eight to ten adult engorged female Boophilus microplus ticks”, “petridish and incubated in a climate chamber for 42 days. After the specified period” for “plastic tray. Egg deposition”, “time,” for “fertile eggs is monitored after. After 7 days”

[11] = active compound concentration 20 ppm
[12] = active compound concentration 4 ppm

| SMILES | mortality at 100 ppm [1] [%] | pest or weed control at 20 ppm [2, 11] [%] | mortality at 100 ppm [3] [%] | insecticidal activity [4, 11] [%] | pest or weed control at 20 ppm [5, 11] [%] | pest or weed control at 20 ppm ([6]; Aulacophora, foliar, 168 h, active compound concentration 20 ppm, read-out: insecticidal activity) [%] | mortality at 20 ppm [7] [%] | activity (mortality) [1] [%] | insecticidal activity [6, 11] [%] | insecticidal activity (mortality) [8] [%] | insecticidal activity (by feeding damage degree) [9] [%] | insecticidal activity [4, 12] [%] | activity (mortality) [10] [%] | acaricidal activity [5, 12] [%] | insecticidal activity [6, 12] [%] | insecticidal activity (pesticidal ratio) [2, 12] [%] | insecticidal activity (pesticidal ratio) [2, 11] [%] | acaricidal activity [5, 11] [%] |
| --- | --- | --- | --- | --- | --- | --- | --- | --- | --- | --- | --- | --- | --- | --- | --- | --- | --- | --- |
| CCC(=O)NCc1ccc(N2CC(c3cc(Cl)c(Cl)c(Cl)c3)(C(F)(F)F)CC2=O)cc1C(F)(F)F (centres unmarked) [C1-46, N-{4-[2-oxo-4-(3,4,5-trichlorophenyl)-4-(trifluoromethyl)pyrrolidin-1-yl]-2-(trifluoromethyl)benzyl}propanamide] | 100 | 100 | 100 | 100 | 100 | – | – | – | – | – | – | – | – | – | – | – | – | – |
| CCC(=O)NCc1ccc(N2CCC(c3cc(Cl)cc(Cl)c3)(C(F)(F)F)C2O)cc1C(F)(F)F (centres unmarked) [A1-35, N-{4-[3-(3,5-dichlorophenyl)-2-hydroxy-3-(trifluoromethyl)pyrrolidin-1-yl]-2-(trifluoromethyl)benzyl}propanamide] | 100 | 100 | 100 | – | 100 | 100 | 100 | – | – | – | – | – | – | – | – | – | – | – |
| O=C(NCc1cnc(N2CCC(c3cc(Cl)c(F)c(Cl)c3F)(C(F)(F)F)C2O)nc1C(F)(F)F)C1CC1 (centres unmarked) [A4-115] | – | – | – | – | – | – | – | 90 | 100 | 100 | 98 | 100 | 100 | 100 | – | – | – | – |
| O=C(NCc1cnc(N2CCC(c3cc(Cl)c(F)c(Cl)c3)(C(F)(F)F)C2O)nc1C(F)(F)F)C1CC1 (centres unmarked) [A4-104] | – | – | – | – | – | – | – | – | 100 | – | 98 | 100 | 100 | 100 | – | – | – | – |
| O=C(NCc1ccc(N2CCC(c3cc(F)cc(C(F)(F)F)c3)(C(F)(F)F)C2O)nc1C(F)(F)F)C1CC1 (mixture of isomers) [A3-247] | – | – | – | – | – | – | – | 95 | 100 | 100 | – | – | 100 | 100 | 100 | 100 | 100 | 100 |
| O=C(CC(F)(F)F)NCc1ccc(N2CCC(c3cc(Cl)cc(C(F)(F)F)c3)(C(F)(F)F)C2O)nc1C(F)(F)F (racemic) [A3-271] | – | – | – | – | – | – | – | – | 100 | – | 98 | – | 100 | 100 | 100 | 100 | 100 | 100 |
| O=C(NCc1cnc(N2CCC(c3cc(Cl)c(F)c(Cl)c3F)(C(F)(F)F)C2O)cc1C(F)(F)F)C1CC1 (centres unmarked) [A5-82] | – | – | – | – | – | – | – | 95 | 100 | – | 90 | 100 | 100 | 100 | – | – | – | – |
| O=C(NCc1ccc(N2CCC(c3ccc(F)c(C(F)(F)F)c3)(C(F)(F)F)C2O)nc1C(F)(F)F)C1CC1 (mixture of isomers) [A3-236] | – | – | – | – | – | – | – | – | 100 | – | 98 | – | 100 | 100 | 100 | 100 | 100 | – |
